According to patent publication US9732061B2, “Cinnoline derivatives useful as CB-1 receptor inverse agonists” (Janssen Pharmaceutica NV, priority 2015, dated 2017):

Assays:
[1] = target: Human CB1R (Cannabanoid receptor 1) (Homo sapiens (Human), UniProt P21554); assay: CB-1 in vitro cAMP (HTRF) assay; format: cell-based; details: HEK-293 cells stably transfected with human CB1R, 250 nM Forskolin, mean where tested more than once
Text: (§1) CB1 and CB2 receptors are Gi-coupled GPCR. Activation of CB1 and CB2 receptors results in a decrease in cAMP production. An inverse agonist of the CB1 or CB2 receptor results in the opposite effect, an increase of cAMP production. The principle of this assay is based on HTRF® technology (Homogeneous Time-Resolved Fluorescence). The method is a competitive immunoassay between native cAMP produced by cells and the cAMP labeled with the fluorophore d2. The tracer binding is quantified by a Mab anti-cAMP labeled with Eu3+TBP-NHS Cryptate (supplied as part of the assay kit). The specific signal (i.e. energy transfer) is inversely proportional to the concentration of cAMP in the standard or sample.
(§2) Biological Example 1: CB-1 and CB-2 In Vitro Assay
(§3) Human CB1R (Cannabanoid receptor 1) was stably transfected in HEK-293 cells (DiscoveRx, cat: 93-0200C1). Human CB2R (Cannabanoid receptor 2) was stably transfected in HEK-293 cells (DiscoveRx, cat: 93-0201C1). Cell cultures were maintained in media: DMEM (Invitrogen Cat#12430-054) supplemented with 10% HI FBS (Invitrogen Cat#16140-071), 1% L-glutamine (Invitrogen Cat#25030-081), 0.2 mg/ml Hygromycin B (Invitrogen Cat#10687-010), 600 μg/mL G418 (Invitrogen Cat#10131-035), and 1×Penn/Strep (Invitrogen 15140-122). After cell expansion, aliquots were cryo-stored in media containing 5% DMSO (Pierce Cat#20684).
(§4) One day prior to experiments media was warmed to 37° C. and the cryo-stored cells were thawed in a 37° C. water bath. The cells were then added to media (10× volume) and the mixture was centrifugated at 1000 RPM for 5 min. The supernate was removed and the cells were re-suspended in media. A sample of the cell suspension was evaluated on a Cedex XS automated cell counter (Innovatis Systems) to determine viable cells/ml. Additional media was added to the cells to achieve a final cell density of 4E5 cells/mL. The cells were then plated into 384 well PDL white solid bottom plates (Greiner, Cat#781945) at 20 μL per well using a Multidrop (Thermo Scientific). Cells were removed from Row P (location of cAMP standards). Two columns of cells were plated into a clear bottom 384 well PDL coated plate (Greiner, Cat#781944) to view confluence the day of the assay. The cell plates were lidded and stored for 15 minutes in a hood, then transferred to an incubator (37° C., 5% CO2, 95% humidity) overnight.
(§5) DMSO was added to all wells of 384 well V bottom polystyrene plate (Greiner, Cat#781280) except to columns 1 and 13, rows O and P and wells M13-M23 and N13-N23. Test compounds (60 μL, 10 mM) were added to Column 1 and 13 (A1 through N1 and A13 through L13). Test compounds were serially diluted 1/3 by transferring and mixing 20 μl sample with 40 μL DMSO.
(§6) DMSO (40 μL) was added to wells of 384 well V bottom polystyrene plate: O2 through O11, M14 through M23, N14 through N23, and O14 through O23. AM630 (also known as [6-iodo-2-methyl-1-[2-(4-morpholinyl)ethyl]-1H-indol-3-yl](4-methoxyphenyl)-methanone, Cayman Chemical, Cat#10006974) (60 μL, 10 mM) was added to O1; and 1-(2,4-dichlorophenyl)-7-[(4-fluorophenyl)methylene]-4,5,6,7-tetrahydro-N-1-piperidinyl-1H-indazole-3-carboxamide (60 μL, 10 mM) was added to N13. The control was serially diluted 1/3 by transferring and mixing 20 μl sample with 40 μL DMSO. This process resulted 11 doses per control, 10 mM to […].
(§7) Cells plated the day prior to the assay in clear bottom plates were viewed on an inverse microscope to ensure confluency in the range of 60-75%. […]

[2] = target: Human CB2R (Cannabanoid receptor 2) (Homo sapiens (Human), UniProt P34972); assay: CB-2 in vitro cAMP (HTRF) assay; format: cell-based; details: HEK-293 cells stably transfected with human CB2R, 250 nM Forskolin, mean where tested more than once
Sequence of Human CB2R (Cannabanoid receptor 2) (P34972 whole entry): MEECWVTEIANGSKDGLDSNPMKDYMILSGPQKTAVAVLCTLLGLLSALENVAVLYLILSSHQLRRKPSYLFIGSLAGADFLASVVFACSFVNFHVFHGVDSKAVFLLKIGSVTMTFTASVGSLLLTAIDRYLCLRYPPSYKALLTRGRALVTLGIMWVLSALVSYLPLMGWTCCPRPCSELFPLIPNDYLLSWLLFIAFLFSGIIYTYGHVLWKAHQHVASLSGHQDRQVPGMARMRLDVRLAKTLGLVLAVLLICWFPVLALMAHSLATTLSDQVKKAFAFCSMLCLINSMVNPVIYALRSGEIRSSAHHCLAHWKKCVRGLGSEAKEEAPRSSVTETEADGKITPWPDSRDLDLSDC
Text: as §1, §2, §3, §4, §5, §6, §7

Sequence of Human CB1R (Cannabanoid receptor 1) (P21554 whole entry): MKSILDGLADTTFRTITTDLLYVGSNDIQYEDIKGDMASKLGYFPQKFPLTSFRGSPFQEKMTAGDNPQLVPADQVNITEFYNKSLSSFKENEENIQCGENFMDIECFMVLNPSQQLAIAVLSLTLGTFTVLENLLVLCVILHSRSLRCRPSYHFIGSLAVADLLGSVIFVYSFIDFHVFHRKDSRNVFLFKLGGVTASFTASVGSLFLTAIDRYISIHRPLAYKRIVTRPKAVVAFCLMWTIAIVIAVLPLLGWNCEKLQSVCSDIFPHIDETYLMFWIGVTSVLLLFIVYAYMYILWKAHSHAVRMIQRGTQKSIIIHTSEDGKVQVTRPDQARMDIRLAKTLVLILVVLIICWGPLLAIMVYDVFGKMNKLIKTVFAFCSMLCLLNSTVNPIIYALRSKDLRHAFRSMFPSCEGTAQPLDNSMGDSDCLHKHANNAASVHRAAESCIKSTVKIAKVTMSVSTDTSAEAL

Compound	EC50 [1] [nM]	EC50 [2] [nM]
O=S(=O)(N1CCC(Nc2cnnc3ccc(C(c4ccc(Cl)cc4)c4ccc(Cl)cc4)cc23)C1)C(F)(F)F (stereo not drawn) [Compound 26, 6-(bis(4-chlorophenyl)methyl)-N-(1-(trifluoromethylsulfonyl)pyrrolidin-3-yl)cinnolin-4-amine]	95	1930
Oc1ccc(CNc2cnnc3ccc(C(c4ccc(Cl)cc4)c4ccc(Cl)cc4)cc23)cc1 [Compound 21, 4-((6-(bis(4-chlorophenyl)methyl)cinnolin-4-ylamino)methyl)phenol]	1160	5930
O=S(=O)(N1CCC(Nc2cnnc3ccc(C(c4ccc(Cl)cc4)c4nccs4)cc23)CC1)C(F)(F)F (stereo not drawn) [Compound 36, 6-((4-chlorophenyl)(thiazol-2-yl)methyl)-N-(1-(trifluoromethylsulfonyl)piperidin-4-yl)cinnolin-4-amine]	28	665
O=S(=O)(N1CCC(Nc2cnnc3ccc(C(O)(c4ccc(Cl)cc4)c4ccc(Cl)cc4)cc23)CC1)C(F)(F)F [Compound 1, bis(4-chlorophenyl)(4-((1-((trifluoromethyl)sulfonyl)piperidin-4-yl)amino)cinnolin-6-yl)methanol]	455	> 10000
O=S(=O)(N1CCC(Nc2cnnc3ccc(C(c4ccc(F)cc4)c4ccc(Cl)cc4)cc23)CC1)C(F)(F)F (stereo not drawn) [Compound 34, 6-((4-chlorophenyl)(4-fluorophenyl)methyl)-N-(1-(trifluoromethylsulfonyl)piperidin-4-yl)cinnolin-4-amine]	30	> 10000
OC(c1ccc(Cl)cc1)(c1ccc(Cl)cc1)c1ccc2nncc(NCc3ccc(C(F)(F)F)cc3)c2c1 [Compound 7, bis(4-chlorophenyl)(4-((4-(trifluoromethyl)benzyl)amino)cinnolin-6-yl)methanol]	219	> 10000
O=S(=O)(N1CCN(c2cnnc3ccc(C(c4ccc(Cl)cc4)c4ccc(Cl)cc4)cc23)CC1)C(F)(F)F [Compound 24, 6-[bis(4-chlorophenyl)methyl]-4-[4-(trifluoromethane)sulfonylpiperazin-1-yl]cinnoline]	261	> 10000
O=C(O)c1cccc(CCNc2cnnc3ccc(C(c4ccc(Cl)cc4)c4ccc(Cl)cc4)cc23)c1 [Compound 38, 3-(2-(6-(bis(4-chlorophenyl)methyl)cinnolin-4-ylamino)ethyl)benzoic acid]	4500	3980
COc1ccc(CNc2cnnc3ccc(C(c4ccc(Cl)cc4)c4ccc(Cl)cc4)cc23)cc1 [Compound 20, 6-(bis(4-chlorophenyl)methyl)-N-(4-methoxybenzyl)cinnolin-4-amine]	196	3580
Clc1ccc(C(c2ccc(Cl)cc2)c2ccc3nncc(NCCc4ccccc4)c3c2)cc1 [Compound 25, 6-(bis(4-chlorophenyl)methyl)-N-phenethylcinnolin-4-amine]	35	2460

The next lines start with the values.

EC50 [1] [nM]	EC50 [2] [nM]	Compound
1440	> 10000	O=C(O)c1ccc(CN2CCC(Nc3cnnc4ccc(C(c5ccc(Cl)cc5)c5ccc(Cl)cc5)cc34)CC2)cc1 [Compound 13, 4-((4-(6-(bis(4-chlorophenyl)methyl)cinnolin-4-ylamino)piperidin-1-yl)methyl)benzoic acid]
262	2140	O=C(O)c1ccc(S(=O)(=O)N2CCC(Nc3cnnc4ccc(C(c5ccc(Cl)cc5)c5ccc(Cl)cc5)cc34)CC2)s1 [Compound 16, 5-(4-(6-(bis(4-chlorophenyl)methyl)cinnolin-4-ylamino)piperidin-1-ylsulfonyl)thiophene-2-carboxylic acid]
1690	> 10000	Clc1ccc(C(c2ccc(Cl)cc2)c2ccc3nncc(NC4CCN(Cc5ccccc5)C4)c3c2)cc1 (stereo not drawn) [Compound 28, N-(1-benzylpyrrolidin-3-yl)-6-(bis(4-chlorophenyl)methyl)cinnolin-4-amine]
1280	5600	O=C(O)c1ccc(S(=O)(=O)N2CCC(Nc3cnnc4ccc(C(c5ccc(Cl)cc5)c5ccc(Cl)cc5)cc34)CC2)o1 [Compound 14, 5-(4-(6-(bis(4-chlorophenyl)methyl)cinnolin-4-ylamino)piperidin-1-ylsulfonyl)furan-2-carboxylic acid]
6540	> 10000	Clc1ccc(C(c2ccc(Cl)cc2)c2ccc3nncc(N4CCN(Cc5ccccc5)CC4)c3c2)cc1 [Compound 22, 4-(4-benzylpiperazin-1-yl)-6-(bis(4-chlorophenyl)methyl)cinnoline]
10100	8100	O=C(O)c1ccc(N2CCC(Nc3cnnc4ccc(C(c5ccc(Cl)cc5)c5ccc(Cl)cc5)cc34)CC2)cc1 [Compound 17, 4-(4-(6-(bis(4-chlorophenyl)methyl)cinnolin-4-ylamino)piperidin-1-yl)benzoic acid]
643	> 10000	Clc1ccc(C(c2ccc(Cl)cc2)c2ccc3nncc(NC4CCN(CCc5ccccc5)CC4)c3c2)cc1 [Compound 30, 6-(bis(4-chlorophenyl)methyl)-N-(1-phenethylpiperidin-4-yl)cinnolin-4-amine]
5940	> 10000	O=C(O)c1ccccc1S(=O)(=O)N1CCC(Nc2cnnc3ccc(C(c4ccc(Cl)cc4)c4ccc(Cl)cc4)cc23)CC1 [Compound 19, 2-(4-(6-(bis(4-chlorophenyl)methyl)cinnolin-4-ylamino)piperidin-1-ylsulfonyl)benzoic acid]
5090	> 10000	O=C(O)c1cccc(CCN2CCC(Nc3cnnc4ccc(C(c5ccc(Cl)cc5)c5ccc(Cl)cc5)cc34)CC2)c1 [Compound 23, 3-[2-[4-([6-[bis(4-chlorophenyl)methyl]cinnolin-4-yl]amino)piperidin-1-yl]ethyl]benzoic acid]
6640	> 10000	O=C(O)c1ccc(CCN2CCC(Nc3cnnc4ccc(C(c5ccc(Cl)cc5)c5ccc(Cl)cc5)cc34)CC2)cc1 [Compound 31, 4-(2-(4-(6-(bis(4-chlorophenyl)methyl)cinnolin-4-ylamino)piperidin-1-yl)ethyl)benzoic acid]
399	3690	O=C(O)c1ccc(CN2CCC(Nc3cnnc4ccc(C(c5ccc(Cl)cc5)c5ccc(Cl)cc5)cc34)CC2)s1 [Compound 15, 5-((4-(6-(bis(4-chlorophenyl)methyl)cinnolin-4-ylamino)piperidin-1-yl)methyl)thiophene-2-carboxylic acid]
9500	9900	O=C(O)c1ccccc1CN1CCC(Nc2cnnc3ccc(C(c4ccc(Cl)cc4)c4ccc(Cl)cc4)cc23)CC1 [Compound 18, 2-((4-(6-(bis(4-chlorophenyl)methyl)cinnolin-4-ylamino)piperidin-1-yl)methyl)benzoic acid]
272	849	O=S(=O)(c1ccccc1)N1CCC(Nc2cnnc3ccc(C(c4ccc(Cl)cc4)c4ccc(Cl)cc4)cc23)C1 (stereo not drawn) [Compound 27, 6-(bis(4-chlorophenyl)methyl)-N-(1-(phenylsulfonyl)pyrrolidin-3-yl)cinnolin-4-amine]
13	3350	O=S(=O)(N1CCC(Nc2cnnc3ccc(C(c4ccc(Cl)cc4)c4ccc(Cl)cc4)cc23)CC1)C(F)(F)F [Compound 5, 6-(bis(4-chlorophenyl)methyl)-N-(1-((trifluoromethyl)sulfonyl)piperidin-4-yl)cinnolin-4-amine]
